“Also recorded” adds a separate entry of the source. Starred links: 1 amine or outer side, 2 acyl side, 3 side chain; linkers in the order of their positions; H or OH if unused. Positions of bridges follow the written chain, without caps; N, C: chain ends. Non-standard residues stand in square brackets, D forms with d. Residues, ends and D or L forms follow the SMILES beside them. Chains are numbered I, II in the order given. Actinocin(9to1) = Cc1c2oc3c(C)ccc(C(=O)[*:1])c3nc-2c(C(=O)[*:2])c(N)c1=O; NMeV = CN[C@H](C(=O)O)C(C)C; Sar = CNCC(=O)O
Columns and labels:
[1] = system: MYC; assay: Dog toxicology study, TaqMan mRNA in white blood cells after CDKI(12): MYC; assay type: in vivo; conditions: any of the tested doses (0.1, 0.15 mg/kg), FIG. 10
Protocol: (§1) As part of a dog toxicology study, the pharmacodynamic markers MEPCE, MYC and MCL1 were measured by TaqMan® in white blood cells at various time points after CDKI(12) treatment.
(§2) The study had three groups of three dogs each. Dogs in Group 1 (#1001, #1002, and #1003) were treated with vehicle, dogs in Group 3 (#3001, #3002, and #3003) were treated with CDKI(12) at 0.1 mg/kg and dogs in Group 5 (#5001, #5002, and #5003) were treated with CDKI(12) at 0.15 mg/kg. Samples were collected before treatment 0 hour timepoint; 4 hours, 8 hours and 24 hours after treatment, for a total of 12 samples per group. Blood samples were received frozen in QIAGEN RNAprotect® Animal Blood tubes (Cat. #76554). RNA samples were extracted using the QIAGEN RNeasy® Protect Animal Blood kit (Cat. #73224). RNA samples were quantified using the RNA Quant-iT RNA assay® from Invitrogen (Cat. #Q32852) and read on an Invitrogen Qubit fluorometer (Cat. #Q32857). […] The relative quantification method was used to analyze the data; this method uses one sample as a calibrator sample and express mRNA levels relative to that sample. The results are expressed as RQ values (Relative Quantification) with RQ Min and RQ Max values determining a 95% confidence interval for the RQ value. The samples were grouped according to treatment and time point and data from three dogs, each measured in triplicate, were averaged. […]

[2] = system: MCL1; assay: Dog toxicology study, TaqMan mRNA in white blood cells after CDKI(12): MCL1; assay type: in vivo; conditions: any of the tested doses (0.1, 0.15 mg/kg), two probes, FIG. 11
Protocol: as §1, §2

[3] = system: MEPCE; assay: Dog toxicology study, TaqMan mRNA in white blood cells after CDKI(12): MEPCE; assay type: in vivo
Protocol: as §1
The study had three groups of three dogs each. Dogs in Group 1 (#1001, #1002, and #1003) were treated with vehicle, dogs in Group 3 (#3001, #3002, and #3003) were treated with CDKI(12) at 0.1 mg/kg and dogs in Group 5 (#5001, #5002, and #5003) were treated with CDKI(12) at 0.15 mg/kg. Samples were collected before treatment 0 hour timepoint; 4 hours, 8 hours and 24 hours after treatment, for a total of 12 samples per group. Blood samples were received frozen in QIAGEN RNAprotect® Animal Blood tubes (Cat. #76554). RNA samples were extracted using the QIAGEN RNeasy® Protect Animal Blood kit (Cat. #73224). RNA samples were quantified using the RNA Quant-iT RNA assay® from Invitrogen (Cat. #Q32852) and read on an Invitrogen Qubit fluorometer (Cat. #Q32857). First strand cDNA synthesis was performed on 500 ng of RNA in a reaction volume of 20 μl using a High Capacity cDNA Reverse Transcription Kit from Applied Biosystems (Cat. #4368814). The cDNA samples were then diluted to 2 ng/μl (10 ng in 5 μl in each reaction). Each TaqMan® reaction contained: 5 μl of cDNA, 1.25 μl of each probe (18S rRNA and gene of interest), 5 μl of water and 12.5 μl of TaqMan® Gene Expression Master Mix from Applied Biosystems (Cat. #4369016) for a total volume of 25 μl. TaqMan® reactions were run in triplicates on an ABI 7500® machine. The 18S rRNA level was used as an endogenous control to correct for variations in cDNA input. The relative quantification method was used to analyze the data; this method uses one sample as a calibrator sample and express mRNA levels relative to that sample. The results are expressed as RQ values (Relative Quantification) with RQ Min and RQ Max values determining a 95% confidence interval for the RQ value. The samples were grouped according to treatment and time point and data from three dogs, each measured in triplicate, were averaged. The vehicle group at 0 hour timepoint was used as the calibrator sample thus allowing us to measure changes in mRNA levels in response to the test article at various time points. The logarithm of the RQ values are plotted so that increases or decreases from the initial value can be more easily represented; on a logarithmic scale a 10-fold increase or 10-fold decrease in RQ value are represented as +1 and −1 respectively.
We have previously shown that the MEPCE mRNA is particularly sensitive to CDK9 inhibition and any CDKI (see Examples above). […] The mRNA levels were determined by TaqMan® using the relative quantification method. The calibrator sample is vehicle at 0 hour timepoint. […]

[4] = system: MEPCE; assay: MEPCE expression after treatment with CDK9 / transcription elongation inhibitors (FIG. 3); assay type: cell-based
[5] = system: MCL1 protein; assay: Western blot of anti-apoptotic and pro-apoptotic family members (FIG. 5); assay type: cell-based; conditions: lung cancer cell line
Protocol: After treatment with a CDKI, cells were lysed in modified RIPA buffer containing 50 mM TRIS pH 7.4, 150 mM NaCl, 1 mM EDTA, 1% Brij-35, 0.1% deoxycholate, protease inhibitors (Roche Molecular Biochemicals, Mannheim, Germany). SDS-PAGE (4-12% gel) was used to resolve the proteins in the lysate. After electrophoresis, the proteins were electrotransferred onto a polyvinylidene fluoride microporous membrane and immunodetected using standard procedures. FIG. 4 is a Western blot of the multiple myeloma line NCI-H929, treated with CDKI(7) or DMSO and gene expression analyzed at certain time points during the treatment. […] Thus, the reduction in expression of genes in response to CDKI seen at the mRNA level by microarray is confirmed at the protein level by Western blotting.
FIG. 5 is a Western blot comparing the reduction of expression of anti-apoptotic and pro-apoptotic family members after treatment with CDKI(8).

| Compound | MYC mRNA regulation [1] | MCL1 mRNA regulation [2] | MEPCE mRNA regulation ([3]; 0.1 mg/kg, FIG. 9, 0.1 mg/kg) | MEPCE mRNA level at 4 and 8 hours ([3]; 0.15 mg/kg, 4 and 8 hours) | MEPCE mRNA level by 24 hours ([3]; 0.15 mg/kg, 24 hours) | MEPCE mRNA regulation ([3]; 0.15 mg/kg, FIG. 9) | MEPCE expression [4] | expression of MCL1 protein ([5]; 2 hours after treatment) | expression of MCL1 protein ([5]; after 16 hour exposure) |
| --- | --- | --- | --- | --- | --- | --- | --- | --- | --- |
| COC[C@@H](C)N[C@H]1CC[C@H](Nc2cc(-c3cccc(NCC4(C#N)CCOCC4)n3)c(Cl)cn2)CC1 [CDKI(12)] | does not show any significant down regulation; also recorded: not significantly down regulated | does not show any significant down regulation; also recorded: not significantly down regulated | less down regulation; also recorded: clear down regulation | reduced | returns to pretreatment levels | clear down regulation | – | – | – |
| Cc1c2oc3c(C)ccc(C(=O)N[C@@H]4C(=O)N[C@H](C(C)C)C(=O)N5CCC[C@H]5C(=O)N(C)CC(=O)N(C)[C@@H](C(C)C)C(=O)O[C@@H]4C)c3nc-2c(C(=O)N[C@@H]2C(=O)N[C@H](C(C)C)C(=O)N3CCC[C@H]3C(=O)N(C)CC(=O)N(C)[C@@H](C(C)C)C(=O)O[C@@H]2C)c(N)c1=O [Actinomycin D, reference compound] (I: T[dV]P[Sar][NMeV] / II: T[dV]P[Sar][NMeV]; ester I:1-I:C, II:1-II:C; linker I:N-II:N via Actinocin(9to1)) | – | – | – | – | – | – | reduces the expression of MEPCE | – | – |
| N[C@H]1CC[C@H](Nc2cc(-c3cccc(NCc4cccc(F)c4)n3)c(Cl)cn2)CC1 [CDKI(8)] | – | – | – | – | – | – | reduced | reduced | further reduced |

From patent publication US20140005070A1, “MARKERS ASSOCIATED WITH CYCLIN-DEPENDENT KINASE INHIBITORS” (Novartis AG, priority 2011, published 2014)
